From patent US20060252107A1, “Compositions and methods for diagnosing and treating retinal diseases” (Acucela, Inc., priority 2005, published 2006) come the findings set out here.

In one test the test system is photoreceptor cells. The test is described as follows: mature retinal cell culture system with A2E as cell stressor, photoreceptor survival. Format: cell-based, Porcine. As to the method:
(§1) The retinal cell culture system may be exposed to A2E at any concentration between 1 pM and 200 μM (e.g., 1 pM, 10 pM, 100 pM, 250 pM, 500 pM, 750 pM, 1 nM, 10 nM, 50 nM, 100 nM, 250 nM, 500 nM, 750 nM, 1 μM, 2 μM, 5 μM, 7.5 μM, 10 μM, 15 μM, 20 μM, 25 μM, 40 μM, 50 μM, 75 μM, 100 μM, 120 μM, 200 μM); or 250 μM, 500 μM, or 750 μM), between 1 μM and 40 μM, or between 10 μM and 20 μM, for a period of time, for example, between 2 and 48 hours or between 12 and 36 hours. In another embodiment, the cell culture may be exposed to lower concentrations of A2E (for example, between 1 pM and 10 μM or between 1 nM and 1 μM) for longer times (such as about one week, about two weeks, or about one month (4 weeks)).
(§2) Porcine eyes are obtained from Kapowsin Meats, Inc. (Graham, Wash.). Eyes are enucleated, and muscle and tissue are cleaned away from the orbit. Eyes are cut in half along their equator and the neural retina is dissected from the […] part of the eye in buffered saline solution, according to standard methods known in the art. […]
(§3) The retinal neuronal cells are cultured for 1, 3, 6, and 8 weeks, and the cells are analyzed by immunohistochemistry at each time point. […]
(§4) Cultures are analyzed by counting rhodopsin-labeled photoreceptors and NFM-labeled ganglion cells using an Olympus 1X81 or CZX41 microscope (Olympus, Tokyo, Japan). […]

The subject of another test is ganglion cells. Briefly: mature retinal cell culture system with A2E as cell stressor, ganglion cell survival. Type of test: cell-based, Porcine. As to conditions: 20 μM A2E for 48 hours. On the procedure: as §1, §2, §3, §4

Turning to `CC(C=CC1=C(C)CCCC1(C)C)=CC=CC(C)=Cc1cc(C=CC=C(C)C=CC2=C(C)CCCC2(C)C)cc[n+]1CCO` [A2E, N-retinylidene-N-retinyl-ethanolamine], the “death of photoreceptor cells” value in the test on photoreceptor cells (20 μM A2E for 48 hours, compared to photoreceptor cells not exposed to A2E) is given as “more than 90%”. Also, the “effect of exposure of the retinal neuronal cell culture system to A2E” value in the test on photoreceptor cells (concentration and time not stated) is “selective killing of certain cells, particularly photoreceptor cells”. Also, the “survival of ganglion cells” value with ganglion cells is reported as “not adversely affected”.
